Results taken from patent US12365696B2, “Small-molecule focal adhesion kinase (FAK) inhibitors” (DANA-FARBER CANCER INSTITUTE, INC., priority 2019, dated 2025).

These compounds were tested against PTK2 (FAK) (Homo sapiens (Human), UniProt Q05397) (assay: Z′-LYTE kinase assay (SelectScreen Biochemical Kinase Profiling), enzymatic IC50). Details: FAK IC50.
Chain of PTK2 (FAK) (Q05397 whole entry): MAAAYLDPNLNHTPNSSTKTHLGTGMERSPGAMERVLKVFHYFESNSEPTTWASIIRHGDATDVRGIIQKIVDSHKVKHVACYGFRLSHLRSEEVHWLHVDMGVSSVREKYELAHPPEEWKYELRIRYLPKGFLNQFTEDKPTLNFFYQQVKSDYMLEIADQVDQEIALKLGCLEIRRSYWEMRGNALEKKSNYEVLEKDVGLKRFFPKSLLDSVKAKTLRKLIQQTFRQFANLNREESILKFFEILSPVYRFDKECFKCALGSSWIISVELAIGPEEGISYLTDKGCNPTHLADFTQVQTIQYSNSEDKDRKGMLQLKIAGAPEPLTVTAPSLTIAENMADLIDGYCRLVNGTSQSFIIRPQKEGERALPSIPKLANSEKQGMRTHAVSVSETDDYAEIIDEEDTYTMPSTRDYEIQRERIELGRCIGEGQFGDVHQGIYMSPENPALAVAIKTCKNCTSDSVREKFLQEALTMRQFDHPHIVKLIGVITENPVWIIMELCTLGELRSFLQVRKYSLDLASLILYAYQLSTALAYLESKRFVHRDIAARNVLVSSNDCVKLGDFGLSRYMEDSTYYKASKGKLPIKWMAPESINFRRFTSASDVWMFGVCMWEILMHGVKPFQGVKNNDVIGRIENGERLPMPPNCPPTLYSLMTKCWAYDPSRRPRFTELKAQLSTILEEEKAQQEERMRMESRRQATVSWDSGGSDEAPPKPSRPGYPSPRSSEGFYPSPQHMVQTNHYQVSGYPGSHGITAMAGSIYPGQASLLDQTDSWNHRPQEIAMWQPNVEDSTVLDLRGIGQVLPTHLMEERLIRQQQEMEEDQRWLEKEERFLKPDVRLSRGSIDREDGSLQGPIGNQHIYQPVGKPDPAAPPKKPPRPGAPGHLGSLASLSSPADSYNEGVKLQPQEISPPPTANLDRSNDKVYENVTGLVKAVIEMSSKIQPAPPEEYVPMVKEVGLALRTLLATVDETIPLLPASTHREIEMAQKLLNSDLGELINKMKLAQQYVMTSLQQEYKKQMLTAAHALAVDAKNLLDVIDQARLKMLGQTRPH
Description: Enzymatic IC50 data was obtained through ThermoFisher Scientific SelectScreen™ Biochemical Kinase Profiling Service, using a Z′-LYTE™ kinase-specific assay, as described below.
The test compounds were screened in 1% dimethyl sulfoxide (DMSO) (final) in the well. For 10 point titrations, 3-fold serial dilutions were conducted from the starting concentration.
All peptide/kinase mixtures were diluted to a 2× working concentration in the appropriate kinase buffer (see section kinase specific assay conditions for a complete description).
All ATP solutions were diluted to a 4× working concentration in kinase buffer (50 mM 4-(2-hydroxyethyl)-1-piperazineethanesulfonic acid (HEPES) pH 7.5, 0.01% BRIJ-35, 10 mM MgCl2, 1 mM ethylene glycol-bis(β-aminoethyl ether)-N,N,N′,N′-tetraacetic acid (EGTA)). ATP Km apparent was previously determined using a Z′-LYTE assay.
The development reagent was diluted in development buffer (see section kinase-specific assay conditions—direct and cascade for a complete description).
Using a bar-coded Corning, low volume NBS, black 384-well plate (Corning Cat. #4514), 100 nL of 100× test compound in 100% DMSO was added. […] The plate was then shaken for 30 seconds and held at room temperature for a 60 minute kinase reaction incubation period. At which point 5 μL of development reagent solution was added and the plate was shaken for 30 seconds. The plate was held again at room temperature for a 60 minute development reaction incubation period and then read on a fluorescence plate reader and analyzed.
The 2×PTK2 (FAK)/Tyr 07 mixture was prepared in 50 mM HEPES pH 7.5, 0.01% BRIJ-35, 10 mM MgCl2, 1 mM EGTA. […] After the 1 hour kinase reaction incubation period, 5 μL of a 1:16 dilution of development reagent B was added.
SelectScreen Kinase Profiling Service uses XLfit from ID Business Solutions (IDBS). The dose response curve was curve fit to model number 205 (sigmoidal dose-response model).
COc1cc(N2CCC(N3CCN(C)CC3)CC2)ccc1Nc1ncc2c(n1)N(C)c1scnc1C(=O)N2 [Compound 6, 6-((2-methoxy-4-(4-(4-methylpiperazin-1-yl)piperidin-1-yl)phenyl)amino)-4-methyl-4,9-dihydro-10H-pyrimido[5,4-b]thiazolo[5,4-e][1,4]diazepin-10-one] was tested, and the “loss in potency relative to 3” value was 8 fold.
In the case of COc1cc(N2CCC(N3CCN(C)CC3)CC2)ccc1Nc1ncc2c(n1)N(C)c1sc(C(F)(F)F)nc1C(=O)N2C [Compound 177, 6-((2-methoxy-4-(4-(4-methylpiperazin-1-yl)piperidin-1-yl)phenyl)amino)-4,9-dimethyl-2-(trifluoromethyl)-4,9-dihydro-10H-pyrimido[5,4-b]thiazolo[5,4-e][1,4]diazepin-10-one], the “lower potency relative to 5” value is reported as ~10 fold.

Same assay, conditions: enzymatic, Z′-LYTE; read-out: FAK IC50
Cc1nc2c(s1)N(C)c1nc(Nc3ccc(N4CCN(C)CC4)cc3)ncc1NC2=O [Compound 1, 2,4-dimethyl-6-((4-(4-methylpiperazin-1-yl)phenyl)amino)-4,9-dihydro-10H-pyrimido[5,4-b]thiazolo[5,4-e][1,4]diazepin-10-one] was tested, and the IC50 was 228 nM.
Work on Cc1nc2c(s1)N(C)c1nc(Nc3ccc(N4CCC(O)CC4)cc3)ncc1NC2=O [Compound 2, 6-((4-(4-hydroxypiperidin-1-yl)phenyl)amino)-2,4-dimethyl-4,9-dihydro-10H-pyrimido[5,4-b]thiazolo[5,4-e][1,4]diazepin-10-one] yielded an IC50 of 580 nM.
COc1cc(Nc2ncc3c(n2)N(C)c2sc(C)nc2C(=O)N3)ccc1N1CCN(C)CC1 [Compound 4, 6-((3-methoxy-4-(4-methylpiperazin-1-yl)phenyl)amino)-2,4-dimethyl-4,9-dihydro-10H-pyrimido[5,4-b]thiazolo[5,4-e][1,4]diazepin-10-one] gave an IC50 of 90.4 nM.
Work on COc1cc(N2CCC(N3CCN(C)CC3)CC2)ccc1Nc1ncc2c(n1)N(C)c1scnc1C(=O)N2 [Compound 6, 6-((2-methoxy-4-(4-(4-methylpiperazin-1-yl)piperidin-1-yl)phenyl)amino)-4-methyl-4,9-dihydro-10H-pyrimido[5,4-b]thiazolo[5,4-e][1,4]diazepin-10-one] yielded an IC50 of 510 nM.
For COc1cc(N2CCN(C)CC2)ccc1Nc1ncc2c(n1)N(C)c1sc(C)nc1C(=O)N2 [Compound 7, 6-((2-methoxy-4-(4-methylpiperazin-1-yl)phenyl)amino)-2,4-dimethyl-4,9-dihydro-10H-pyrimido[5,4-b]thiazolo[5,4-e][1,4]diazepin-10-one], the IC50 was 48.7 nM.
In the case of CCc1nc2c(s1)N(C)c1nc(Nc3ccc(N4CCC(N5CCN(C)CC5)CC4)cc3OC)ncc1NC2=O [Compound 8, 2-ethyl-6-((2-methoxy-4-(4-(4-methylpiperazin-1-yl)piperidin-1-yl)phenyl)amino)-4-methyl-4,9-dihydro-10H-pyrimido[5,4-b]thiazolo[5,4-e][1,4]diazepin-10-one], the IC50 is reported as 32.1 nM.
For CCN1c2nc(Nc3ccc(N4CCC(N5CCN(C)CC5)CC4)cc3OC)ncc2NC(=O)c2nc(C)sc21 [Compound 9, 4-ethyl-6-((2-methoxy-4-(4-(4-methylpiperazin-1-yl)piperidin-1-yl)phenyl)amino)-2-methyl-4,9-dihydro-10H-pyrimido[5,4-b]thiazolo[5,4-e][1,4]diazepin-10-one], the IC50 was 45.1 nM.
With CNC(=O)c1ccc(Nc2ncc3c(n2)N(C)c2sc(C)nc2C(=O)N3)cc1 [Compound 10, 4-((2,4-dimethyl-10-oxo-9,10-dihydro-4H-pyrimido[5,4-b]thiazolo[5,4-e][1,4]diazepin-6-yl)amino)-N-methylbenzamide] the IC50 was 129 nM.
For COc1cc(N2CCN(S(C)(=O)=O)CC2)ccc1Nc1ncc2c(n1)N(C)c1sc(C)nc1C(=O)N2 [Compound 11, 6-((2-methoxy-4-(4-(methylsulfonyl)piperazin-1-yl)phenyl)amino)-2,4-dimethyl-4,9-dihydro-10H-pyrimido[5,4-b]thiazolo[5,4-e][1,4]diazepin-10-one], the IC50 was 17.6 nM.
C=CC(=O)N1CCN(c2ccc(Nc3ncc4c(n3)N(C)c3sc(C)nc3C(=O)N4C)c(OC)c2)CC1 [Compound 13, 6-((4-(4-acryloylpiperazin-1-yl)-2-methoxyphenyl)amino)-2,4,9-trimethyl-4,9-dihydro-10H-pyrimido[5,4-b]thiazolo[5,4-e][1,4]diazepin-10-one] gave an IC50 of 53.6 nM.
Work on Cc1nc2c(s1)N(C)c1nc(Nc3ccc(N4CCN(C)CC4)cc3OCCO)ncc1N(C)C2=O [Compound 17, 6-((2-(2-hydroxyethoxy)-4-(4-methylpiperazin-1-yl)phenyl)amino)-2,4,9-trimethyl-4,9-dihydro-10H-pyrimido[5,4-b]thiazolo[5,4-e][1,4]diazepin-10-one] yielded an IC50 of 465 nM.
In the case of Cc1nc2c(s1)N(C)c1nc(Nc3ccc(N4CCN(C)CC4)cn3)ncc1N(C)C2=O [Compound 24, 2,4,9-trimethyl-6-((5-(4-methylpiperazin-1-yl)pyridin-2-yl)amino)-4,9-dihydro-10H-pyrimido[5,4-b]thiazolo[5,4-e][1,4]diazepin-10-one], the IC50 is reported as 196 nM.
Work on Cc1nc2c(s1)N(C)c1nc(Nc3cnn(C)c3)ncc1N(C)C2=O [Compound 26, 2,4,9-trimethyl-6-((1-methyl-1H-pyrazol-4-yl)amino)-4,9-dihydro-10H-pyrimido[5,4-b]thiazolo[5,4-e][1,4]diazepin-10-one] yielded an IC50 of 666 nM.
COc1cc(N2CCC(N3CCN(C)CC3)CC2)ccc1Nc1ncc2c(n1)N(C)c1sc(C(F)(F)F)nc1C(=O)N2C [Compound 177, 6-((2-methoxy-4-(4-(4-methylpiperazin-1-yl)piperidin-1-yl)phenyl)amino)-4,9-dimethyl-2-(trifluoromethyl)-4,9-dihydro-10H-pyrimido[5,4-b]thiazolo[5,4-e][1,4]diazepin-10-one] showed an IC50 of 134 nM.
For CN1CCN(c2ccc(Nc3ncc4c(n3)N(C)c3sc(-c5ccccc5)nc3C(=O)N4C)cc2)CC1 [Compound 184, 4,9-dimethyl-6-((4-(4-methylpiperazin-1-yl)phenyl)amino)-2-phenyl-4,9-dihydro-10H-pyrimido[5,4-b]thiazolo[5,4-e][1,4]diazepin-10-one], the IC50 was > 10000 nM.
For COc1cc(N2CCC(N3CCN(C)CC3)CC2)ccc1Nc1ncc2c(n1)N(C)c1sc(-c3ccccc3)nc1C(=O)N2C [Compound 186, 6-((2-methoxy-4-(4-(4-methylpiperazin-1-yl)piperidin-1-yl)phenyl)amino)-4,9-dimethyl-2-phenyl-4,9-dihydro-10H-pyrimido[5,4-b]thiazolo[5,4-e][1,4]diazepin-10-one], the IC50 was > 10000 nM.
CCc1nc2c(s1)N(C)c1nc(Nc3ccc(N4CCC(N5CCN(C)CC5)CC4)cc3OC)ncc1N(C)C2=O [Compound 193, 2-ethyl-6-((2-methoxy-4-(4-(4-methylpiperazin-1-yl)piperidin-1-yl)phenyl)amino)-4,9-dimethyl-4,9-dihydro-10H-pyrimido[5,4-b]thiazolo[5,4-e][1,4]diazepin-10-one] gave an IC50 of 31.7 nM.
COc1cc(Nc2ncc3c(n2)N(C)c2sc(C)nc2C(=O)N3)ccc1N1CCC(N2CCN(C)CC2)CC1 [Compound 194, 6-((3-methoxy-4-(4-(4-methylpiperazin-1-yl)piperidin-1-yl)phenyl)amino)-2,4-dimethyl-4,9-dihydro-10H-pyrimido[5,4-b]thiazolo[5,4-e][1,4]diazepin-10-one] gave an IC50 of 55.7 nM.
In the case of COc1cc(N2CCN(C3CCN(C)CC3)CC2)ccc1Nc1ncc2c(n1)N(C)c1sc(C)nc1C(=O)N2C [Compound 195, 6-((2-methoxy-4-(4-(1-methylpiperidin-4-yl)piperazin-1-yl)phenyl)amino)-2,4,9-trimethyl-4,9-dihydro-10H-pyrimido[5,4-b]thiazolo[5,4-e][1,4]diazepin-10-one], the IC50 is reported as 62.9 nM.
With COc1cc(N2CCN(C)CC2=O)ccc1Nc1ncc2c(n1)N(C)c1sc(C)nc1C(=O)N2C [Compound 196, 6-((2-methoxy-4-(4-methyl-2-oxopiperazin-1-yl)phenyl)amino)-2,4,9-trimethyl-4,9-dihydro-10H-pyrimido[5,4-b]thiazolo[5,4-e][1,4]diazepin-10-one] the IC50 was 82.4 nM.
COc1cc(N2CCN(C(C)=O)CC2)ccc1Nc1ncc2c(n1)N(C)c1sc(C)nc1C(=O)N2C [Compound 199, 6-((4-(4-acetylpiperazin-1-yl)-2-methoxyphenyl)amino)-2,4,9-trimethyl-4,9-dihydro-10H-pyrimido[5,4-b]thiazolo[5,4-e][1,4]diazepin-10-one] showed an IC50 of 45.7 nM.
Work on COc1cc(N2CCN(CCN(C)C)CC2)ccc1Nc1ncc2c(n1)N(C)c1sc(C)nc1C(=O)N2C [Compound 200, 6-((4-(4-(2-(dimethylamino)ethyl)piperazin-1-yl)-2-methoxyphenyl)amino)-2,4,9-trimethyl-4,9-dihydro-10H-pyrimido[5,4-b]thiazolo[5,4-e][1,4]diazepin-10-one] yielded an IC50 of 67.2 nM.
With Cc1nc2c(s1)N(C)c1nc(Nc3ccc(N4CCN(C)CC4)cc3OCC(F)(F)F)ncc1N(C)C2=O [Compound 201, 2,4,9-trimethyl-6-((4-(4-methylpiperazin-1-yl)-2-(2,2,2-trifluoroethoxy)phenyl)amino)-4,9-dihydro-10H-pyrimido[5,4-b]thiazolo[5,4-e][1,4]diazepin-10-one] the IC50 was 83.5 nM.
CCCOc1cc(N2CCN(C)CC2)ccc1Nc1ncc2c(n1)N(C)c1sc(C)nc1C(=O)N2C [Compound 202, 2,4,9-trimethyl-6-((4-(4-methylpiperazin-1-yl)-2-propoxyphenyl)amino)-4,9-dihydro-10H-pyrimido[5,4-b]thiazolo[5,4-e][1,4]diazepin-10-one] showed an IC50 of 155 nM.

Same assay, conditions: phenyl substituent at thiazole 2-position
CN1CCN(c2ccc(Nc3ncc4c(n3)N(C)c3sc(-c5ccccc5)nc3C(=O)N4C)cc2)CC1 [Compound 184, 4,9-dimethyl-6-((4-(4-methylpiperazin-1-yl)phenyl)amino)-2-phenyl-4,9-dihydro-10H-pyrimido[5,4-b]thiazolo[5,4-e][1,4]diazepin-10-one] was tested, and the “FAK inhibitory activity (in words)” value was “abrogated activity”.
